Results on eight molecules are retold here after paper PMC10901950, “Neuroprotective and Anti-inflammatory Effects of Rubiscolin-6 Analogs with Proline Surrogates in Position 2” (Neurochemical Research, 2023).

In series [1] the test system is SH-SY5Y cells. Briefly: Neuroprotection in 6-OHDA-treated SH-SY5Y cells (MTT). The class given is cell-based, human. The following applies: for neuroprotection after pre-treatment with LY 294002: LY 294002 (PI3-K inhibitor) 20 µM; for neuroprotection after pre-treatment with LY 294002 / neuroprotective effect after pre-treatment with PD 98059: 30 min before peptide and 6-OHDA 100 µM; for neuroprotective effect after pre-treatment with PD 98059: PD 98059 (MEK 1 inhibitor) 50 µM; for peptide neuroprotection with opioid receptor antagonists: β-FNA 10 µM or NLT 10 µM 30 min before peptide (1 and/or 10 µM) and 6-OHDA 100 µM, 24 h. On the procedure: The neuroprotective experiments were performed in an in vitro model of a human neuroblastoma cell line (SH-SY5Y) obtained from the German Collection of Microorganisms and Cell Cultures GmbH (DSMZ) Bank (ACC 209). Cells were cultured in Dulbecco’s Modified Eagle’s Medium: Nutrient Mixture F12 (DMEM:F12) supplemented with 1% antibiotic/antimycotic (Amphotericin B, Penicillin and Streptomycin) (Biowest, Nuaillé, France) and 10% (v/v) Fetal Bovine Serum (FBS) (Biowest, Riverside, MO, USA). The anti-inflammatory experiments were performed in an in vitro model of mouse macrophage-like RAW 264.7 cells, purchased from American Type Culture Collection (ATCC, Manassas, VA, USA). Cells were maintained in DMEM medium (Gibco™, Grand Island, NY) and supplemented with 10% bovine calf serum (BCS) (Gibco™, Grand Island, NY) and 1% penicillin–streptomycin (Sigma-Aldrich, St. Louis, MO, USA). Cell cultures were kept at 37 °C in 5% CO2/humidified air.
Cells were incubated with peptides (0.1–10 µM) for 24 h to assess their cytotoxic activity. In the neuroprotective model, SH-SY5Y cells were exposed to 6-OHDA (100 µM) in the absence/presence of peptide at non-toxic concentrations (0.1–10 µM). When needed, a 30 min pre-incubation step with β-funaltrexamine (β-FNA, µ-opioid receptor antagonist, 10 µM), naltrindole (NLT, δ-opioid receptor antagonist, 10 µM), 2’-amino-3’-methoxyflavone (PD 98059, MAPK kinase 1 (MEK 1) inhibitor, 50 µM) or 2-(4-morpholinyl)-8-phenyl-4H-1-benzopyran-4-one (LY 294002, PI3-K inhibitor, 20 µM). Stimulation was terminated by aspiration of the medium and adding 100 µL MTT (1.2 mM) per well. Cells were incubated for 1 h at 37 °C. After this time, MTT was removed, and 100 µL DMSO was added. The resulting absorbance was read in a microplate reader (Biotek, Epoch/2 microplate reader, Winooski, VT, USA) at 570 nm.
Cell metabolic activity (cytotoxicity) was calculated as the percentage of the value obtained for cells incubated with compounds compared to control cells treated with the medium.

Series [2] is described as follows: Degradation by the brain homogenate. Type of series: in vitro ADME. Particulars: rat brain homogenate 100 µL (10 mg protein/mL, 50 mM Tris-HCl pH 7.4) + 100 µL peptide 0.5 mM, final 200 µL, 37 °C, 0-60 min, HPLC read-out, ln 2/k; mean ± SEM of four independent experiments in duplicate; read-out: T0.5 (degradation half-life). The procedure:
The degradation studies were performed on the rat brain homogenate according to the modified method described elsewhere. Briefly, rat brains, after isolation and homogenization in 50 mM Tris–HCl (pH 7.4), were stored at − 80 °C until used. During the test, the aliquots (100 µL, 10 mg protein/mL) were incubated with 100 µL of a peptide (0.5 mM) over 0, 7.5, 15, 22.5, 30, and 60 min at 37 °C in a final volume of 200 µL. The reaction was stopped at the required time by placing the tube on ice and acidifying it with 20 µL of 1 M aqueous HCl solution. Then, the aliquots were centrifuged at 20,000×g for 10 min at 4 °C. The obtained supernatants were filtered and analyzed by HPLC on a Vydac C18 column (5 µm, […]) using the solvent system of 0.1% trifluoroacetic acid (TFA) in water (A) and 80% acetonitrile in water containing 0.1% TFA (B) and a linear gradient of 0–100% B over 25 min. The rate constants of degradation (k) were obtained as described earlier by a least square linear regression analysis of logarithmic peak areas [ln(A/AD)], where A—the amount of peptide remaining, AD—the initial amount of peptide, versus time. Degradation half-lives (t1/2) were calculated from the rate constants as ln 2/k.

Series [3] relates to AKT. Briefly: Western blot, AKT phosphorylation in 6-OHDA-treated SH-SY5Y cells. The class given is cell-based, human. Particulars: for AKT phosphorylation / stimulation time for maximum effect on AKT phosphorylation: peptide 10 µM; for AKT phosphorylation: 2.5-10 min, 6-OHDA 100 µM treated cells; for stimulation time for maximum effect on AKT phosphorylation: 6-OHDA-treated cells, p-AKT (Ser473)/total AKT; for effect of peptide on AKT phosphorylation after LY 294002 pre-treatment: LY 294002 20 µM 30 min before peptide 10 µM and 6-OHDA 100 µM, 7.5 min (5), 2.5 min (7). On the procedure:
The neuroblastoma SH-SY5Y cells were grown in a 6-well plate and when 80–90% confluent treated with 6-OHDA (100 µM) for 24 h. Then cells were stimulated with peptides for 2.5, 5, 7.5 and 10 min (for AKT) or 24 h (for mTOR). When needed, a 30 min pre-incubation step with LY 294002 was included before analogs and 6-OHDA addition. Stimulation was terminated by aspiration of the medium. Cells were washed 2 times with ice-cold PBS, and then 200 µL of ice-cold lysis buffer [150 mM NaCl, 20 mM Tris–HCl, glycerol, 5 mM EDTA, 0.5 mM phenylmethylsulphonylfluoride (PMSF), 10% Triton X-100, 100 mM protease inhibitors, pH 7.4] was added. Cells were incubated on ice for 15 min. Lysates were then centrifuged at 12,000×g for 10 min at 4 °C, and the supernatants were used as the total cell lysates. The protein content in the supernatants was quantified using the Bio-Rad protein assay kit. Equal amounts of protein were separated on 10% sodium dodecyl sulfate (SDS)-polyacrylamide gels and transferred to polyvinylidene difluoride membranes from (PVDF, Millipore, Cork, Ireland). Non-specific binding was blocked with tris-buffered saline Tween-20 (TBS-T: 150 mM NaCl, 20 mM Tris–HCl, 0.1% Tween 20, pH 7.5) containing 5% nonfat milk for 2 h at room temperature. Then, the membrane was incubated overnight at 4 °C with one of the following specific primary antibodies: Vinculin (1:1000 dilution; Cell Signalling Technology, Danvers, MA, USA), p-AKT (1:1000 dilution; Cell Signalling Technology, Danvers, MA, USA), AKT (1:1000 dilution; Cell Signalling Technology, Danvers, MA, USA), p-mTOR (1:1000 dilution; Cell Signalling Technology, Danvers, MA, USA), mTOR (1:1000 dilution; Cell Signalling Technology, Danvers, MA, USA). After incubation, membranes were washed six times per 5 min with TBS-T. In the next step, membranes were incubated with HRP-conjugated secondary antibodies (1:1000 dilution; Cell Signalling Technology, Danvers, MA, USA) for 1 h. Following six washes with TBS-T, the protein bands were detected with the Clarity Western ECL reagent from Bio-Rad. The band intensity was quantified by NIH ImageJ densitometric analysis. For quantification, specific phosphorylation was calculated as the ratio of phosphorylated AKT or mTOR signals to the total Akt or mTOR signal detected. Values of unstimulated samples were set to 1.0. The original immunoblots are provided in Supplementary data.
For orientation: In western blotting, separated proteins are transferred to a membrane and probed.

Numbered stars: 1 amine (or outer) side, 2 acyl side, 3 side chain; on linkers, the order of the positions; unused ones are H or OH. Square brackets hold non-standard residues; d marks the D form. Ends that are not written are not given here. Peptide text beside a SMILES is read from it. Nip(3R) = O=C([C@@H]1CCCN([*:1])C1)[*:2]; Dmt = Cc1cc(O)cc(C)c1C[C@H](N)C(=O)O; Inp = O=C(O)C1CCNCC1

Usually half-life stands for how long it takes for the measured level to halve. With `Cc1cc(O)cc(C)c1C[C@H](N)C(=O)N1CCC[C@H]1C(=O)N[C@@H](CC(C)C)C(=O)N[C@@H](CC(=O)O)C(=O)N[C@@H](CC(C)C)C(=O)N[C@@H](Cc1ccccc1)C(=O)O` [analog 1, Dmt-Pro-Leu-Asp-Leu-Phe-OH] (H-[Dmt]PLDLF-OH), in series [1], the “neuroprotection after pre-treatment with LY 294002” value (from here on “neuroprotection after pre-treatment”) is “significantly weakened”, the “neuroprotective effect after pre-treatment with PD 98059” value (from here on “neuroprotective effect”) is listed as “didn’t inhibit” and the “peptide neuroprotection with opioid receptor antagonists” value (“peptide neuroprotection” below) is given as “did not abolish”. The half-life at 0.25 mM in series [2] was 20.8 ± 0.85 min.
`CC(C)C[C@H](NC(=O)[C@@H]1CCCN(C(=O)[C@@H](N)Cc2ccc(O)cc2)C1)C(=O)N[C@@H](CC(=O)O)C(=O)N[C@@H](CC(C)C)C(=O)N[C@@H](Cc1ccccc1)C(=O)O` [analog 2, Tyr-(R)-Nip-Leu-Asp-Leu-Phe-OH] (H-Y[Nip(3R)]LDLF-OH): in series [2], the half-life at 0.25 mM is 25.5 ± 0.4 min.
With `CC(C)C[C@H](NC(=O)C1CCN(C(=O)[C@@H](N)Cc2ccc(O)cc2)CC1)C(=O)N[C@@H](CC(=O)O)C(=O)N[C@@H](CC(C)C)C(=O)N[C@@H](Cc1ccccc1)C(=O)O` [analog 3, Tyr-Inp-Leu-Asp-Leu-Phe-OH] (H-Y[Inp]LDLF-OH), in series [1], the “neuroprotection after pre-treatment” value is “significantly weakened”, the “neuroprotective effect” value is listed as “didn’t inhibit” and the “peptide neuroprotection” value is given as “did not abolish”. In addition, in series [3], the AKT phosphorylation entry is reported as “transiently stimulated” and the “stimulation time for maximum effect on AKT phosphorylation” value (shortened to “stimulation time for maximum effect”) stood at 7.5 min. The half-life at 0.25 mM in series [2] worked out at 28.6 ± 0.95 min.
Consider `Cc1cc(O)cc(C)c1C[C@H](N)C(=O)N1CCC[C@@H](C(=O)N[C@@H](CC(C)C)C(=O)N[C@@H](CC(=O)O)C(=O)N[C@@H](CC(C)C)C(=O)N[C@@H](Cc2ccccc2)C(=O)O)C1` [analog 4, Dmt-(R)-Nip-Leu-Asp-Leu-Phe-OH] (H-[Dmt][Nip(3R)]LDLF-OH), for which, in series [2], the half-life at 0.25 mM was 30.4 ± 1.2 min.
With `Cc1cc(O)cc(C)c1C[C@H](N)C(=O)N1CCC(C(=O)N[C@@H](CC(C)C)C(=O)N[C@@H](CC(=O)O)C(=O)N[C@@H](CC(C)C)C(=O)N[C@@H](Cc2ccccc2)C(=O)O)CC1` [analog 5, Dmt-Inp-Leu-Asp-Leu-Phe-OH] (H-[Dmt][Inp]LDLF-OH), in series [1], the “neuroprotection after pre-treatment” value is “significantly weakened”; the “neuroprotective effect” value is “didn’t inhibit”; the “peptide neuroprotection” value is “some slight µ- and δ-opioid receptor antagonist effect is evident”. Also, in series [3], the “effect of peptide on AKT phosphorylation after LY 294002 pre-treatment” value is recorded as “significantly blocked”, the AKT phosphorylation entry is given as “transiently stimulated” and the “stimulation time for maximum effect” value came to 7.5 min. Also, the half-life at 0.25 mM in series [2] was 38.5 ± 0.7 min.
As to `CC(C)C[C@H](NC(=O)C1CCN(C(=O)[C@@H](N)Cc2ccc(O)cc2)CC1)C(=O)N[C@@H](CC(=O)O)C(=O)N[C@@H](CC(C)C)C(=O)N[C@@H](Cc1ccccc1)C(N)=O` [analog 7, Tyr-Inp-Leu-Asp-Leu-Phe-NH2] (H-Y[Inp]LDLF-NH2), in series [1], the “neuroprotection after pre-treatment” value is “significantly weakened”, the “neuroprotective effect” value is reported as “didn’t inhibit” and the “peptide neuroprotection” value is recorded as “did not abolish”. For the same molecule, in series [3], the “effect of peptide on AKT phosphorylation after LY 294002 pre-treatment” value is “significantly blocked”, the AKT phosphorylation entry is recorded as “transiently stimulated” and the “stimulation time for maximum effect” value was 2.5 min. The half-life at 0.25 mM in series [2] turned out to be 30.7 ± 0.35 min.
For the molecule YPLDLF [R-6, rubiscolin-6], in series [2], the half-life at 0.25 mM is 14.3 ± 0.8 min.
Still for that read-out and setting: the result for “YPLDLF-NH2 [analog 6, Tyr-Pro-Leu-Asp-Leu-Phe-NH2]” reads 23.2 ± 1.05 min.
